Source: the supplement of paper PMC9663587

Experiments:
THZ1 [1] = compound: T1, CN(C)C/C=C/C(=O)Nc1ccc(C(=O)Nc2cccc(Nc3ncc(Cl)c(-c4c[nH]c5ccccc45)n3)c2)cc1 [THZ1]; assay: GR value, 72 h; higher = faster growth (1 = untreated, <0 = killing);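 also: breast cancer and non-malignant breast epithelial lines, nine half-log doses, viable cells counted by Hoechst and LIVE/DEAD dye imaging versus time-zero plates and DMSO controls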
Neratinib/HKI272 [2] = compound: T2, CCOc1cc2ncc(C#N)c(Nc3ccc(OCc4ccccn4)c(Cl)c3)c2cc1NC(=O)/C=C/CN(C)C [Neratinib/HKI272]; assay: as above
[3] = compound: CCN1CCN(Cc2ccc(Nc3ncc(F)c(-c4cc(F)c5nc(C)n(C(C)C)c5c4)n3)nc2)CC1; assay: increase in dead-cell fraction, 72 h; higher = more death;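 also: breast cancer cell lines in 384-well plates, stained with Hoechst plus LIVE/DEAD far red dye and imaged, cells above an LDR intensity threshold counted dead, Hoechst-negative corpses included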
[4] = compound: CCc1cnn2c(NCc3ccc[n+]([O-])c3)cc(N3CCCC[C@H]3CCO)nc12; assay: as above
YKL-5-124 = compound: C=CC(=O)Nc1ccc(C(=O)Nc2[nH]nc3c2CN(C(=O)N[C@H](CN(C)C)c2ccccc2)C3(C)C)cc1 [YKL-5-124]; assay: as above
BSJ-03-123 = compound: CC(=O)c1c(C)c2cnc(Nc3ccc(N4CCN(CCOCCOCCOCCNC(=O)COc5cccc6c5C(=O)N(C5CCC(=O)NC5=O)C6=O)CC4)cn3)nc2n(C2CCCC2)c1=O [BSJ-03-123]; assay: as above
THZ1 [5] = compound: T1, THZ1; assay: as above
Neratinib/HKI272 [6] = compound: T2, Neratinib/HKI272; assay: as above
Flavopiridol = compound: CN1CC[C@H](c2c(O)cc(O)c3c(=O)cc(-c4ccccc4Cl)oc23)[C@H](O)C1 [Flavopiridol]; assay: as above
[7] = compound: CC(=O)c1c(C)c2cnc(Nc3ccc(N4CCNCC4)cn3)nc2n(C2CCCC2)c1=O; assay: as above
LEE011/Ribociclib = compound: CN(C)C(=O)c1cc2cnc(Nc3ccc(N4CCNCC4)cn3)nc2n1C1CCCC1 [LEE011/Ribociclib]; assay: as above
THZ531 = compound: CN(C)C/C=C/C(=O)Nc1ccc(C(=O)N2CCC[C@@H](Nc3ncc(Cl)c(-c4c[nH]c5ccccc45)n3)C2)cc1 [THZ531]; assay: as above

HCC1187 gave a GR value (THZ1 [1]; 0.0001 µM) of 0.932 GR, a GR value (THZ1 [1]; 0.0003162 µM) of 1.51 GR and a GR value (THZ1 [1]; 0.001 µM) of 0.963 GR. For the same cell line, the GR value (THZ1 [1]; 0.003162 µM) was 0.885 GR, the GR value (THZ1 [1]; 0.01 µM) was 0.645 GR and the GR value (THZ1 [1]; 0.03162 µM) was 0.0807 GR. The GR value (THZ1 [1]; 0.1 µM) was -0.731 GR, the GR value (THZ1 [1]; 0.3162 µM) was -0.852 GR and the GR value (THZ1 [1]; 1 µM) was -0.8 GR. It also gave a GR value (Neratinib/HKI272 [2]; 0.0003162 µM) of 0.994 GR, a GR value (Neratinib/HKI272 [2]; 0.001 µM) of 0.99 GR and a GR value (Neratinib/HKI272 [2]; 0.003162 µM) of 0.792 GR. For the same cell line, the GR value (Neratinib/HKI272 [2]; 0.01 µM) was 1.07 GR, the GR value (Neratinib/HKI272 [2]; 0.03162 µM) was 0.979 GR and the GR value (Neratinib/HKI272 [2]; 0.1 µM) was 0.78 GR. The GR value (Neratinib/HKI272 [2]; 0.3162 µM) was 0.869 GR, the GR value (Neratinib/HKI272 [2]; 1 µM) was 0.653 GR and the GR value (Neratinib/HKI272 [2]; 3.162 µM) was 0.484 GR. The “increase in dead-cell fraction” value ([3]; 0.001 µM) was 0.0028, the “increase in dead-cell fraction” value ([3]; 0.003162 µM) was 0.0037 and the “increase in dead-cell fraction” value ([3]; 0.01 µM) was 0.0062. For the same cell line, the “increase in dead-cell fraction” value ([3]; 0.03162 µM) was -0.0026, the “increase in dead-cell fraction” value ([3]; 0.1 µM) was 0.0042 and the “increase in dead-cell fraction” value ([3]; 0.3162 µM) was 0.0069. For the same cell line, the “increase in dead-cell fraction” value ([3]; 1 µM) was -0.0008, the “increase in dead-cell fraction” value ([3]; 3.162 µM) was 0.0149 and the “increase in dead-cell fraction” value ([3]; 10 µM) was 0.0352. For the same cell line, the “increase in dead-cell fraction” value ([4]; 0.0001 µM) was 0.0033, the “increase in dead-cell fraction” value ([4]; 0.0003162 µM) was 0.0035 and the “increase in dead-cell fraction” value ([4]; 0.001 µM) was 0.0039. The “increase in dead-cell fraction” value ([4]; 0.003162 µM) was 0.0055, the “increase in dead-cell fraction” value ([4]; 0.01 µM) was 0.0539 and the “increase in dead-cell fraction” value ([4]; 0.03162 µM) was 0.56. The “increase in dead-cell fraction” value ([4]; 0.1 µM) was 0.662, the “increase in dead-cell fraction” value ([4]; 0.3162 µM) was 0.668 and the “increase in dead-cell fraction” value ([4]; 1 µM) was 0.598. For the same cell line, the “increase in dead-cell fraction” value (YKL-5-124; 0.001 µM) was 0.0446, the “increase in dead-cell fraction” value (YKL-5-124; 0.003162 µM) was 0.0713 and the “increase in dead-cell fraction” value (YKL-5-124; 0.01 µM) was 0.133. The “increase in dead-cell fraction” value (YKL-5-124; 0.03162 µM) was 0.0654, the “increase in dead-cell fraction” value (YKL-5-124; 0.1 µM) was 0.0694 and the “increase in dead-cell fraction” value (YKL-5-124; 0.3162 µM) was 0.0946. For the same cell line, the “increase in dead-cell fraction” value (YKL-5-124; 1 µM) was 0.164, the “increase in dead-cell fraction” value (YKL-5-124; 3.162 µM) was 0.17 and the “increase in dead-cell fraction” value (YKL-5-124; 10 µM) was 0.406. For the same cell line, the “increase in dead-cell fraction” value (BSJ-03-123; 0.001 µM) was 0.0005, the “increase in dead-cell fraction” value (BSJ-03-123; 0.003162 µM) was -0.0076 and the “increase in dead-cell fraction” value (BSJ-03-123; 0.01 µM) was -0.0142. The “increase in dead-cell fraction” value (BSJ-03-123; 0.03162 µM) was -0.0171, the “increase in dead-cell fraction” value (BSJ-03-123; 0.1 µM) was 0.013 and the “increase in dead-cell fraction” value (BSJ-03-123; 0.3162 µM) was 0.0153. For the same cell line, the “increase in dead-cell fraction” value (BSJ-03-123; 1 µM) was 0.037, the “increase in dead-cell fraction” value (BSJ-03-123; 3.162 µM) was 0.0469 and the “increase in dead-cell fraction” value (BSJ-03-123; 10 µM) was 0.323. The “increase in dead-cell fraction” value (THZ1 [5]; 0.0001 µM) was -0.0047, the “increase in dead-cell fraction” value (THZ1 [5]; 0.0003162 µM) was -0.0081 and the “increase in dead-cell fraction” value (THZ1 [5]; 0.001 µM) was 0.0016. For the same cell line, the “increase in dead-cell fraction” value (THZ1 [5]; 0.003162 µM) was 0.019, the “increase in dead-cell fraction” value (THZ1 [5]; 0.01 µM) was 0.0061 and the “increase in dead-cell fraction” value (THZ1 [5]; 0.03162 µM) was 0.113. The “increase in dead-cell fraction” value (THZ1 [5]; 0.1 µM) was 0.421, the “increase in dead-cell fraction” value (THZ1 [5]; 0.3162 µM) was 0.568 and the “increase in dead-cell fraction” value (THZ1 [5]; 1 µM) was 0.624. The “increase in dead-cell fraction” value (Neratinib/HKI272 [6]; 0.0003162 µM) was -0.0132, the “increase in dead-cell fraction” value (Neratinib/HKI272 [6]; 0.001 µM) was 0.0086 and the “increase in dead-cell fraction” value (Neratinib/HKI272 [6]; 0.003162 µM) was -0.0045. The “increase in dead-cell fraction” value (Neratinib/HKI272 [6]; 0.01 µM) was -0.0058, the “increase in dead-cell fraction” value (Neratinib/HKI272 [6]; 0.03162 µM) was -0.0052 and the “increase in dead-cell fraction” value (Neratinib/HKI272 [6]; 0.1 µM) was -0.002. The “increase in dead-cell fraction” value (Neratinib/HKI272 [6]; 0.3162 µM) was 0.0006, the “increase in dead-cell fraction” value (Neratinib/HKI272 [6]; 1 µM) was 0.0155 and the “increase in dead-cell fraction” value (Neratinib/HKI272 [6]; 3.162 µM) was 0.0076. The “increase in dead-cell fraction” value (Flavopiridol; 0.0001 µM) was -0.0206, the “increase in dead-cell fraction” value (Flavopiridol; 0.0003162 µM) was 0.0043 and the “increase in dead-cell fraction” value (Flavopiridol; 0.001 µM) was 0.0532. The “increase in dead-cell fraction” value (Flavopiridol; 0.003162 µM) was -0.0091, the “increase in dead-cell fraction” value (Flavopiridol; 0.01 µM) was 0.0053 and the “increase in dead-cell fraction” value (Flavopiridol; 0.03162 µM) was -0.0105. The “increase in dead-cell fraction” value (Flavopiridol; 0.1 µM) was 0.0075, the “increase in dead-cell fraction” value (Flavopiridol; 0.3162 µM) was 0.15 and the “increase in dead-cell fraction” value (Flavopiridol; 1 µM) was 0.612. The “increase in dead-cell fraction” value ([7]; 0.0003162 µM) was -0.0075, the “increase in dead-cell fraction” value ([7]; 0.001 µM) was 0.0038 and the “increase in dead-cell fraction” value ([7]; 0.003162 µM) was 0.0189. For the same cell line, the “increase in dead-cell fraction” value ([7]; 0.01 µM) was 0.0048, the “increase in dead-cell fraction” value ([7]; 0.03162 µM) was -0.0042 and the “increase in dead-cell fraction” value ([7]; 0.1 µM) was -0.001. For the same cell line, the “increase in dead-cell fraction” value ([7]; 0.3162 µM) was -0.0035, the “increase in dead-cell fraction” value ([7]; 1 µM) was 0.0145 and the “increase in dead-cell fraction” value ([7]; 3.162 µM) was 0.0042. The “increase in dead-cell fraction” value (LEE011/Ribociclib; 0.001 µM) was -0.0158, the “increase in dead-cell fraction” value (LEE011/Ribociclib; 0.003162 µM) was 0.0194 and the “increase in dead-cell fraction” value (LEE011/Ribociclib; 0.01 µM) was 0.0202. The “increase in dead-cell fraction” value (LEE011/Ribociclib; 0.03162 µM) was 0.0086, the “increase in dead-cell fraction” value (LEE011/Ribociclib; 0.1 µM) was -0.01 and the “increase in dead-cell fraction” value (LEE011/Ribociclib; 0.3162 µM) was 0.0057. The “increase in dead-cell fraction” value (LEE011/Ribociclib; 1 µM) was 0.0164, the “increase in dead-cell fraction” value (LEE011/Ribociclib; 3.162 µM) was 0.0124 and the “increase in dead-cell fraction” value (LEE011/Ribociclib; 10 µM) was 0.0129. The “increase in dead-cell fraction” value (THZ531; 0.0001 µM) was 0.0118, the “increase in dead-cell fraction” value (THZ531; 0.0003162 µM) was -0.0088 and the “increase in dead-cell fraction” value (THZ531; 0.001 µM) was -0.0009. The “increase in dead-cell fraction” value (THZ531; 0.003162 µM) was -0.0126, the “increase in dead-cell fraction” value (THZ531; 0.01 µM) was -0.0087 and the “increase in dead-cell fraction” value (THZ531; 0.03162 µM) was -0.0107. The “increase in dead-cell fraction” value (THZ531; 0.1 µM) was 0.36 and the “increase in dead-cell fraction” value (THZ531; 0.3162 µM) was 0.611.
